What was measured:
[1] = target: METTL3/METTL14 (Homo sapiens, UniProt Q86U44); experiment: Displacement of [3H]-SAM from METTL3/METTL14 (unknown origin) using 5'biotinylated-UACACUCGAUCUGGACUAAAGGUGCUC-3' RNA as substrate preincubated for 10 mins followed by substrate/[3H]-SAM addition measured after 90 mins by SPA; assay type: protein-complex assay
[2] = Lipophilicity, logD of compound in 1-octanol/PBS at pH 7.4 incubated for 24 hrs by HPLC analysis; assay type: physicochemical
[3] = test system: Kasumi 1; experiment: Antiproliferative activity against human Kasumi 1 cells assessed as inhibition of cell viability incubated for 72 hrs by ATPlite assay; assay type: functional, cell-based; settings: Kasumi 1, 72 h
[4] = Unbound clearance in Sprague-Dawley rat at 1 mg/kg/day, iv measured for 24 hrs by LC-MS/MS analysis; assay type: ADME, organism-based; settings: in vivo
[5] = Unbound AUC in Sprague-Dawley rat at 1 mg/kg/day, iv measured for 24 hrs by LC-MS/MS analysis; assay type: ADME, organism-based; settings: in vivo

METTL3/METTL14, sequence (Q86U44 whole entry): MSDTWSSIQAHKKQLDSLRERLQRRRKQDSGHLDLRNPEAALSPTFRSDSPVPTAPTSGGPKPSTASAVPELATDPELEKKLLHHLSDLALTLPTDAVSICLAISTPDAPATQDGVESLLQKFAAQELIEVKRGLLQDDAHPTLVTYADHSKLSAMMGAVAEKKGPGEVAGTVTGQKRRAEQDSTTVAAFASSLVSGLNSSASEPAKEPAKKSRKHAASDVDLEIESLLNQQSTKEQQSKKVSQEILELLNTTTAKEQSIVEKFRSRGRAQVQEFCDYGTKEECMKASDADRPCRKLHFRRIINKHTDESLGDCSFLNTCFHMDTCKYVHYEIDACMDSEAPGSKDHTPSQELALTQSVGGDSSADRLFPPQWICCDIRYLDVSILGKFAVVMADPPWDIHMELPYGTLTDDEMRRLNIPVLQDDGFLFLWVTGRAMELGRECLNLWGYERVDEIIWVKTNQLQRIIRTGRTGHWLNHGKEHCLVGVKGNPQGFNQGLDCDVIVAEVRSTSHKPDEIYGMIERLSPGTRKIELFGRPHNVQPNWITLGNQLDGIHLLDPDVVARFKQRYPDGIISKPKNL
METTL3/METTL14, sequence (Q9HCE5 whole entry, further chain): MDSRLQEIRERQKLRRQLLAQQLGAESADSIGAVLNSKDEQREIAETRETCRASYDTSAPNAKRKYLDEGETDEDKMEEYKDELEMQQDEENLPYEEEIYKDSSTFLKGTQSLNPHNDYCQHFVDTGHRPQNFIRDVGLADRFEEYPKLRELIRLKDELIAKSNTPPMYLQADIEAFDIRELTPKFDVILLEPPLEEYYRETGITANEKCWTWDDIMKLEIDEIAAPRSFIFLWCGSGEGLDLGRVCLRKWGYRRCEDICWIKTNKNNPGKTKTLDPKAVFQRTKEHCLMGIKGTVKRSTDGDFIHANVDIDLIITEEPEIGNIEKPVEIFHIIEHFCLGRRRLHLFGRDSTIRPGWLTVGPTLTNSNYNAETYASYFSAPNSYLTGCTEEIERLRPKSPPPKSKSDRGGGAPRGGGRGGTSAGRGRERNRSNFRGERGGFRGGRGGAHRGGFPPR

Row | SMILES | IC50 [1] [nM] | logD at 24 h [2] | CL free [4] [mL/min/kg] | fAUC [5] [µM·min] | IC50 [3] [nM]
1 | COc1cncc(-c2cn(C(c3ccc(N4CCC[C@@H](NCC5CCC5)C4)nn3)C(F)(F)F)nn2)c1 (some centres not stated) | 12 | 2.43 | – | – | 12200
2 | CC(n1cc(-c2cncc(N(C)C)n2)nn1)n1ccc(N2CCC[C@@H](NCC3CC3)C2)cc1=O (some centres not stated) | 1 | 1.17 | 369 | 5.2 | 96
3 | COc1cncc(-c2cn(C(C)n3ccc(N4CCC[C@@H](NCC5CCC5)C4)cc3=O)nn2)n1 (some centres not stated) | 3 | 1.65 | 413 | 6.1 | 656
4 | COc1cncc(-c2nnc(C(C)n3ccc(N4CCC[C@@H](NCC5CCC5)C4)cc3=O)s2)c1 (some centres not stated) | 3 | 1.45 | 480 | – | 506
5 | CC(n1cc(-c2cncc(N(C)C)c2)nn1)n1ccc(N2CCC[C@@H](NCC3CCC3)C2)cc1=O (some centres not stated) | – | 1.79 | 803 | 2.2 | 44
6 | COc1cncc(-c2cn(Cc3ccc(N4CCC[C@@H](NCC5CCC5)C4)cc3)nn2)c1 | 6 | 2.04 | – | – | 875
7 | COc1cncc(-c2cnn(C(C)n3ccc(N4CCC[C@@H](NCC5CCC5)C4)cc3=O)n2)c1 (some centres not stated) | > 30000 | 1.84 | – | – | > 30000
8 | COc1cccc(-c2cn(C(C)n3ccc(N4CCC[C@@H](NCC5CCC5)C4)cc3=O)nn2)c1 (some centres not stated) | – | 2.22 | – | – | > 30000
9 | CC(n1cc(-c2cccn3cncc23)nn1)n1ccc(N2CCC[C@@H](NCC3CCC3)C2)cc1=O (some centres not stated) | 8 | 1.53 | – | – | 5400
10 | COc1cncc(-c2ncn(C(C)n3ccc(N4CCC[C@@H](NCC5CCC5)C4)cc3=O)n2)c1 (some centres not stated) | 5 | 1.37 | – | – | 1610
11 | COc1cncc(-c2cc(C(C)n3ccc(N4CCC[C@@H](NCC5CCC5)C4)cc3=O)on2)c1 (some centres not stated) | 7 | 1.63 | – | – | 1840
12 | COc1cncc(-c2cc(C(C)n3ccc(N4CCC[C@@H](NCC5CCC5)C4)cc3=O)sn2)c1 (some centres not stated) | 11 | 2.26 | – | – | 1720
13 | COc1cncc(-c2cn(Cn3ncc(N4CCC[C@@H](NCC5CCC5)C4)cc3=O)nn2)c1 | 26 | 1.06 | – | – | 11800
14 | COc1cncc(-c2cn(C(C)n3ccc(N4CCC[C@@H](NCC5CCC5)C4)cc3=O)cn2)c1 (some centres not stated) | – | 1.52 | 487 | – | 453
15 | COc1cncc(-n2cnc(C(C)n3ccc(N4CCC[C@@H](NCC5CCC5)C4)cc3=O)c2)c1 (some centres not stated) | > 30000 | 1.25 | – | – | > 30000
16 | COc1cncc(-c2nnn(C(C)n3ccc(N4CCC[C@@H](NCC5CCC5)C4)cc3=O)n2)c1 (some centres not stated) | 13 | 1.52 | – | – | 5500
17 | COc1cncc(-n2cc(C(C)n3ccc(N4CCC[C@@H](NCC5CCC5)C4)cc3=O)nn2)c1 (some centres not stated) | 7 | 1.12 | – | – | 1930
18 | COc1cnnc(-c2cn(C(C)n3ccc(N4CCC[C@@H](NCC5CCC5)C4)cc3=O)nn2)c1 (some centres not stated) | 5 | 0.62 | – | – | 5420
19 | COc1ccc(-c2cn(C(C)n3ccc(N4CCC[C@@H](NCC5CCC5)C4)cc3=O)nn2)cn1 (some centres not stated) | > 30000 | 1.69 | – | – | > 30000
20 | CC(n1cc(-c2cccnc2)nn1)n1ccc(N2CCC[C@@H](NCC3CCC3)C2)cc1=O (some centres not stated) | 39 | 0.87 | – | – | 8120
21 | COc1cncc(-n2cc(C(C)n3ccc(N4CCC[C@@H](NCC5CCC5)C4)cc3=O)cn2)c1 (some centres not stated) | 1 | 1.6 | 608 | – | 306
22 | CC(n1cc(-c2cncc(C#N)c2)nn1)n1ccc(N2CCC[C@@H](NCC3CCC3)C2)cc1=O (some centres not stated) | – | 0.97 | – | – | > 30000

Further lines, with some results ahead:

Row | IC50 [1] [nM] | logD at 24 h [2] | CL free [4] [mL/min/kg] | fAUC [5] [µM·min] | SMILES | IC50 [3] [nM]
23 | 50 | 1.18 | – | – | COc1cncc(-c2cn(Cc3ccc(N4CCCCC(NCC5CCC5)C4)nn3)nn2)c1 (configuration not stated) | > 30000
24 | – | 2.14 | – | – | COc1cc(-c2cn(Cc3ccc(N4CCC[C@@H](NC(C)C5CCC5)C4)nn3)nn2)c2cn[nH]c2c1 (some centres not stated) | 10100
25 | 25 | 1.7 | – | – | COc1cncc(-c2cn(C3(c4ccc(N5CCC[C@@H](NCC6CCC6)C5)nn4)CC3)nn2)c1 | 9880
26 | 2 | 1.63 | – | – | COc1cc(-c2cn(Cc3ccc(N4CCC[C@@H](NCC5CC5)C4)nn3)nn2)c2cn[nH]c2c1 | 1050
27 | 4 | 3.06 | – | – | COc1cc(-c2cn(Cc3ccc(N4CCC[C@@H](NC5CC56CCC6)C4)nn3)nn2)c2cn[nH]c2c1 (some centres not stated) | 1100
28 | 3 | 1.92 | – | – | COc1cc(-c2cn(Cc3ccc(N4CCC[C@@H](NCC(C)C)C4)nn3)nn2)c2cn[nH]c2c1 | 1760
29 | 235 | 1.95 | – | – | COc1cc(-c2cn(Cc3ccc(N4CCC(NCC5CCC5)C4)nn3)nn2)c2cn[nH]c2c1 (configuration not stated) | 15300
30 | 215 | 1.55 | – | – | COc1cncc(-c2cn(Cc3ccc(C4CCCC(NCC5CCC5)C4)nn3)nn2)c1 (configuration not stated) | > 30000
31 | 2300 | 1.54 | – | – | COc1cncc(-c2cn(Cc3ccc(N4CC5(CCC5NCC5CCC5)C4)nn3)nn2)c1 (configuration not stated) | > 30000
32 | 563 | 1.64 | – | – | COc1cc(-c2cn(Cc3ccc(N4CCC(NCC5CCC5)CC4)nn3)nn2)c2cn[nH]c2c1 | > 30000
33 | > 30000 | 1.15 | – | – | COc1cncc(-c2cn(Cc3ccc(N4CCCC(NCC5CCC5)C4=O)nn3)nn2)c1 (configuration not stated) | > 30000
34 | 243 | 1.01 | – | – | COc1cc(-c2cn(Cc3ccc(N4CCC[C@@H](N)C4)nn3)nn2)c2cn[nH]c2c1 | > 30000
35 | 205 | 1.85 | – | – | COc1cncc(-c2cn(Cc3ccc(N4CC5(CCCC5NCC5CCC5)C4)nn3)nn2)c1 (configuration not stated) | > 30000
36 | 7 | 1.46 | – | – | COc1cncc(-c2cn(Cc3ccc(N4CCC[C@@H](NCC5CCC5)C4)nc3)nn2)c1 | 1200
37 | – | 2.59 | – | – | COc1cc(-c2cn(Cc3ccc(N4CCC[C@@H](N(C)CC5CCC5)C4)nn3)nn2)c2cn[nH]c2c1 | 3130
38 | 5 | 1.71 | – | – | COc1cc(-c2cn(Cc3ccc(N4CCC[C@@H](NC5CCC5)C4)nn3)nn2)c2cn[nH]c2c1 | 2740
39 | – | 1.88 | – | – | COc1cc(-c2cn(Cc3ccc(N4CCC[C@@H](NC5CCCC5)C4)nn3)nn2)c2cn[nH]c2c1 | 3430
40 | 24 | 1.89 | – | – | COc1cc(-c2cn(Cc3ccc(N4CCC[C@H](NCC5CCC5)C4)nn3)nn2)c2cn[nH]c2c1 | 3400
41 | – | 2.61 | – | – | COc1cc(-c2cn(Cc3ccc(N4CCC[C@@H](NC(=O)C5CCC5)C4)nn3)nn2)c2cn[nH]c2c1 | > 30000
42 | 124 | 0.88 | – | – | COc1cncc(-c2cn(Cc3ccc(N4CCC[C@@H](CNC5CCC5)C4)nn3)nn2)c1 | > 30000
